From patent US10124033B2, “Peptides and methods of use” (BAXALTA INCORPORATED, priority 2014, dated 2018)
Residues, ends and D or L forms follow the SMILES beside them.

Assays:
[1] = biological target: T1, Protein S (Homo sapiens, UniProt P07225); assay: competition (IC50) ELISA with biotinylated tracer peptide JBS0684; type: binding
T1 sequence (P07225 41-676 limits assumed): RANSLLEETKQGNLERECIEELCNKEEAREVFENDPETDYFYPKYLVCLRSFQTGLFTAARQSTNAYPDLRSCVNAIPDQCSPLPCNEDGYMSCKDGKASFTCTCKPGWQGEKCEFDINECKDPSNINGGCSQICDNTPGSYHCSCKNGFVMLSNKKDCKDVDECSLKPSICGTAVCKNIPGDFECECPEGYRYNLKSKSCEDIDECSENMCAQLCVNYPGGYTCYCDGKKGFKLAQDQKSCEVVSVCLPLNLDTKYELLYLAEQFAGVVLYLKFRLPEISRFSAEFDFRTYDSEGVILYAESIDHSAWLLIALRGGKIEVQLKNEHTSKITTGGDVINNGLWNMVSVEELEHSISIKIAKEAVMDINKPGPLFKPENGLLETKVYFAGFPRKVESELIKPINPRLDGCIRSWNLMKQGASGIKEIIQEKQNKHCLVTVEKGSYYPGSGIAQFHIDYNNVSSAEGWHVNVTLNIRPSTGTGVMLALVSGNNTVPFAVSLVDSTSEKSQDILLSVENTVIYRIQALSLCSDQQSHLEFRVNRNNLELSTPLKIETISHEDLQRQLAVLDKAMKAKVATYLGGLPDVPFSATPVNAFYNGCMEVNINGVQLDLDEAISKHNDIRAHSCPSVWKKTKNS
Experimental: The new peptide candidates were synthesized (purity >60%) and screened for affinity in a competitive binding assay (ELISA IC50) and activity in a thrombin generation assay (CAT). The competition (IC50) ELISA was performed using biotinylated tracer peptide JBS0684 to compete for Protein S-binding with candidate peptides. Peptides that compete with the tracer bind the same region of Protein S as the tracer (and each other). Ninety-six well PolySorp plates (Nunc) were coated with 3 μg/mL Protein S in coating buffer (15 mM Na2CO3, 35 mM NaHCO3, pH 9.6) over night. Plates were washed three times with wash buffer (HNaT: 175 mM NaCl, 25 mM HEPES, 5 mM CaCl2, 0.1% Tween 80, pH 7.35), and blocked with 100 μl 2% yeast extract in HNaT for at least 1 hour. Plates were then washed three times with HNaT. JBS0684 was applied at a concentration corresponding to the EC90 value determined in the binding ELISA. A competitor stock solution of peptide (10 mM) was diluted 1/33.3 in HNaT without HSA, and a serial ⅓ dilution was prepared with HNaT with 3% DMSO. The dilution was further diluted with the biotinylated tracer peptide in a ratio of 1:6 (20 μl competitor dilution and 100 μl tracer peptide). The mixture of competitor and tracer peptide was applied to the Protein S-coated microtiter plate and incubated for 1.5 hours. The plates were washed three times with HNaT. Peptide-Protein S binding was detected by applying HRP-conjugated streptavidin to the microtiter plate, incubating the mixture for one hour, washing the plate three times with HNaT, applying TMB (3,3′5,5′-Tetramethylbenzidin), and detecting the subsequent chromogenic conversion of TMB by HRP. IC50 measurements of peptides are provided herein (see, e.g., Table 3).

[2] = biological target: T2, C4BP/PS complex (Homo sapiens, UniProt P07225); assay: LANCE IC50 assay on preformed C4BP/PS complex; type: binding
T2 sequence (P07225 41-676 limits assumed): T1 sequence (P07225 41-676 limits assumed)
Experimental: To investigate the effect of the peptides described herein on PS/C4BP complexes, a LANCE IC50 assay was established using methods similar to those described above. JBS2572 or JBS3216 was added to a preformed C4BP/PS complex. Changes in the complex concentration were followed by recording the TR-FRET signal. For both peptides, a time- and concentration-dependent dissociation of the C4BP/PS complex was observed. The IC50 of JBS3216 was 0.3 nM, and the IC50 of JBS2572 was 2 nM. The time-dependency of the complex reduction was similar for both peptides. After two hours of incubation in the presence of 100 nM JBS2572 or JBS3216, the C4BP/PS complex was reduced to 60% and 50%, respectively. In addition, binding of biotinylated JBS2572 to Protein S was inhibited by C4BP in the LANCE IC50 assay. Pull-down experiments where JBS2697 was coupled to streptavidin sepharose and incubated for one hour at room temperature with (a) Protein S (1.6 pmol) (b) C4BP (8.5 pmol) and (c) Protein S (1.6 pmol)+C4BP (8.5 pmol) supported the results from the modified LANCE IC50 assay.

CC(=O)N[C@H](C(=O)NCC(=O)N[C@@H](CC(C)C)C(=O)N[C@H](C(=O)N[C@@H](CO)C(=O)N[C@@H](C)C(=O)NCC(=O)N[C@@H](Cc1c[nH]c2ccccc12)C(=O)N[C@@H](Cc1ccc(O)cc1)C(=O)N[C@@H](CC(=O)O)C(=O)N[C@@H](Cc1ccc(O)cc1)C(=O)N[C@@H](CC(N)=O)C(=O)N[C@@H](Cc1ccccc1)C(=O)N[C@@H](CC(=O)O)C(=O)N[C@@H](Cc1c[nH]cn1)C(=O)N[C@@H](Cc1ccc(O)cc1)C(=O)N[C@@H](CCCNC(=N)N)C(=O)N[C@@H](CCC(=O)O)C(=O)N[C@@H](Cc1ccccc1)C(=O)N[C@H](C(N)=O)[C@@H](C)O)C(C)C)[C@@H](C)O [JBS2572] (Ac-TGLVSAGWYDYNFDHYREFT-NH2)
increase of affinity compared to JBS2512 ([1]; His to Leu substitution at position 3): 1.6 fold
IC50 ([1]; competition ELISA, tracer JBS0684, re-synthesized peptides): 2.5 ± 0.3 nM
IC50 ([2]; peptide added to preformed C4BP/PS complex, TR-FRET, read-out: IC50 of dissociation of preformed C4BP/PS complex): 2 nM
C4BP/PS complex reduced to ([2]; two hours of incubation, 100 nM peptide): 60%
